This note sets out measurements from patent EP0326329B1, “Quinazoline derivatives useful as insecticides” (Dow AgroSciences LLC, priority 1988, dated 1989).

What all share (assay type): in vivo
Data set [1] has as its system Erysiphe graminis tritici (powdery mildew). Nature of the data set: Greenhouse Test 1, foliar spray fungicide screen (POWD MDEW), host wheat. The following applies: disease control rating, 400 ppm (+++ at 100 ppm).
Data set [2] deals with Pyricularia oryzae (rice blast). Conditions: disease control rating, foliar spray, host rice; 400 ppm (+++ at 100 ppm).
In data set [3] the test system is Puccinia recondita tritici (leaf rust). Nature of the data set: Greenhouse Test 1, foliar spray fungicide screen (LEAF RUST), host wheat. The following applies: disease control rating, 400 ppm (+++ at 100 ppm).
The subject of data set [4] is Botrytis cinerea (gray mold). The experiment in a line: Greenhouse Test 1, foliar spray fungicide screen (GRAY MOLD), host grape berries. The following applies: disease control rating, 400 ppm (+++ at 100 ppm).
In data set [5] the test system is Pseudoperonospora cubensis (downy mildew). The experiment in a line: Greenhouse Test 1, foliar spray fungicide screen (DOWN MDEW), host squash. The following applies: disease control rating, 400 ppm (+++ at 100 ppm).
Data set [6] concerns Southern corn rootworm (Diabrotica undecimpuctata howardi Barber). Nature of the data set: Mite/insect screen, soil treatment (CRW). Conditions: percent mortality, soil treatment; for mortality at 12 ppm / mortality at 24 ppm: Diabrotica, read-out: CRW RESULTS %. The gist of the method: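 Five 2–3 instar larvae were placed on dry sandy soil with a presoaked corn seed after the soil had received 1 mL of compound solution and dried 6–12 h; cups were kept capped at 23°C. Mortality (%) and phytotoxicity were read after standard exposure. Formulation: acetone/alcohol with emulsifiers, water-diluted.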

The test system of data set [7] is southern armyworm (Spodopetra eridania Cramer). Nature of the data set: Mite/insect screen, sprayed squash leaves (SAW). Conditions: percent mortality; for mortality at 200 ppm / mortality at 400 ppm: Spodoptera eridania, read-out: SAW RESULTS %. The gist of the method:
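Steps: formulate compound in acetone/alcohol 50:50 carrying emulsifiers; dilute with water; spray leaves until runoff on upper and lower surfaces; air-dry one hour; for armyworm, excise two […] leaves into a dish of larvae; after exposure, score mortality and plant injury.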

The subject of data set [8] is Twospotted spider mites (Tetranychus urticae Koch). The experiment in a line: Mite/insect screen, sprayed squash cotyledons (SM). Conditions: percent mortality; for mortality at 200 ppm / mortality at 400 ppm: Tetranychus urticae, read-out: SM RESULTS %. The method in brief:
(§1)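 Compounds dissolved in acetone/alcohol with TOXIMUL R/S emulsifiers, diluted with water to test concentrations, and sprayed to runoff on both leaf surfaces at 10 psi, then dried 1 h. Excised treated squash leaves given southern armyworm larvae; aphid and spider mite tests on sprayed squash cotyledons. Percent mortality and phytotoxicity scored after standard exposure.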

The subject of data set [9] is melon aphids (Aphis gossypii Glover). The experiment in a line: Mite/insect screen, sprayed squash cotyledons (MA). The following applies: percent mortality; for mortality at 200 ppm / mortality at 400 ppm: Aphis gossypii, read-out: MA RESULTS %. The gist of the method:
as §1

Consider `Clc1ccc2ncnc(NCCc3ccc(-c4ccccc4)cc3)c2c1` [Example 90, 6-chloro-N-[2-(1,1'-biphenyl)-4-ylethyl]-4-quinazolinamine], for which, in data set [1], the “POWD MDEW” value is “+ (+ = 20-89% control at 400 ppm)”. Moreover, in [2], the “RICE BLAST” value is recorded as “+ (+ = 20-89% control at 400 ppm)”. Also, in [3], the “LEAF RUST” value is recorded as “+ (+ = 20-89% control at 400 ppm)”. In [4], the “GRAY MOLD” value is “- (- = 0-19% control at 400 ppm)”. Further, the “DOWN MDEW” value in [5] was “+++ (+++ = 90-100% control at 100 ppm)”. Also, the mortality at 12 ppm in data set [6] (CRW rate 12.00 ppm) came to 0%. In [6] (CRW rate 24.00 ppm), the mortality at 24 ppm was 0%. Further, the mortality at 200 ppm in data set [7] (spray rate 200 ppm) came to 0%; in data set [8] (spray rate 200 ppm) it was 100%; in data set [9] (spray rate 200 ppm), 80%. Further, the mortality at 400 ppm in data set [7] (spray rate 400 ppm) worked out at 100%; in [8] (spray rate 400 ppm) it was 0%; in data set [9] (spray rate 400 ppm), 0%.
As for `c1ccc2c(CCOc3ncnc4ccccc34)cccc2c1` [Example 91, 4-[2-(1-naphthyl)ethoxy]quinazoline], in data set [1], the “POWD MDEW” value is reported as “+ (+ = 20-89% control at 400 ppm)”. The “RICE BLAST” value in data set [2] was “++ (++ = 90-100% control at 400 ppm)”. In [3], the “LEAF RUST” value is reported as “+ (+ = 20-89% control at 400 ppm)”. The “GRAY MOLD” value in data set [4] is “- (- = 0-19% control at 400 ppm)”. The “DOWN MDEW” value in [5] was “++ (++ = 90-100% control at 400 ppm)”. In data set [6] (CRW rate 12.00 ppm), the mortality at 12 ppm was found to be 0%. In data set [6] (CRW rate 24.00 ppm), the mortality at 24 ppm worked out at 0%. Besides, the mortality at 200 ppm in data set [7] (spray rate 200 ppm), in data set [8] (spray rate 200 ppm) and in [9] (spray rate 200 ppm) was 0% each time. Further, the mortality at 400 ppm in data set [7] (spray rate 400 ppm), in data set [8] (spray rate 400 ppm) and in data set [9] (spray rate 400 ppm) was 0% each time.
For `Fc1cccc2c(OCCc3ccc(-c4ccccc4)cc3)ncnc12` [Example 93, 8-fluoro-4-[2-(1,1'-biphenyl)-4-ylethoxy]quinazoline], in data set [1], the “POWD MDEW” value was “+++ (+++ = 90-100% control at 100 ppm)”. For the same compound, the “RICE BLAST” value in data set [2] is on record as “+++ (+++ = 90-100% control at 100 ppm)”. The “LEAF RUST” value in [3] is “+++ (+++ = 90-100% control at 100 ppm)”. Moreover, the “GRAY MOLD” value in data set [4] is listed as “- (- = 0-19% control at 400 ppm)”. Moreover, the “DOWN MDEW” value in [5] is listed as “+++ (+++ = 90-100% control at 100 ppm)”. Moreover, the “CRW RESULTS %” value in data set [6] (CRW rate 12.00 ppm) and in data set [6] (CRW rate 24.00 ppm) was 0% in each case. Further, the “SAW RESULTS %” value in [7] (spray rate 200 ppm) and in data set [7] (spray rate 400 ppm) was 100% throughout. The “SM RESULTS %” value was 80% in [8] (spray rate 200 ppm) and 0% in [8] (spray rate 400 ppm). Besides, the “MA RESULTS %” value in data set [9] (spray rate 200 ppm) is 80%; in data set [9] (spray rate 400 ppm) it was 0%.
In the case of `CC(C)(C)c1ccc(CCOc2ncnc3c(F)cccc23)cc1` [Example 94, 8-fluoro-4-[2-[4-(t-butyl)phenyl]ethoxy]quinazoline], in [1], the “POWD MDEW” value is recorded as “+++ (+++ = 90-100% control at 100 ppm)”. Besides, the “RICE BLAST” value in data set [2] is recorded as “+++ (+++ = 90-100% control at 100 ppm)”. In addition, the “LEAF RUST” value in [3] is recorded as “+++ (+++ = 90-100% control at 100 ppm)”. Also, the “GRAY MOLD” value in data set [4] is recorded as “- (- = 0-19% control at 400 ppm)”. Also, in [5], the “DOWN MDEW” value is recorded as “+++ (+++ = 90-100% control at 100 ppm)”. Moreover, in data set [6] (CRW rate 12.00 ppm), the mortality at 12 ppm was 0%. For the same compound, the mortality at 24 ppm in [6] (CRW rate 24.00 ppm) amounted to 0%. The mortality at 200 ppm came to 100% in data set [7] (spray rate 200 ppm), 100% in data set [8] (spray rate 200 ppm) and 80% in data set [9] (spray rate 200 ppm). Moreover, the mortality at 400 ppm stood at 100% in data set [7] (spray rate 400 ppm), 0% in data set [8] (spray rate 400 ppm) and 0% in data set [9] (spray rate 400 ppm).
Take `Fc1cccc2c(OCCc3ccccc3)ncnc12` [Example 95, 8-fluoro-4-(2-phenylethoxy)quinazoline]: the “POWD MDEW” value in [1] was “+++ (+++ = 90-100% control at 100 ppm)”. Also, the “RICE BLAST” value in data set [2] was “- (- = 0-19% control at 400 ppm)”. In addition, the “LEAF RUST” value in data set [3] is reported as “+++ (+++ = 90-100% control at 100 ppm)”. For the same compound, the “GRAY MOLD” value in [4] is reported as “- (- = 0-19% control at 400 ppm)”. The “DOWN MDEW” value in [5] is “+++ (+++ = 90-100% control at 100 ppm)”. In addition, the mortality at 12 ppm in [6] (CRW rate 12.00 ppm) was 0%. In addition, in [6] (CRW rate 24.00 ppm), the mortality at 24 ppm worked out at 0%. Moreover, the mortality at 200 ppm was 0% in data set [7] (spray rate 200 ppm), 0% in data set [8] (spray rate 200 ppm) and 80% in [9] (spray rate 200 ppm). Further, the mortality at 400 ppm in [7] (spray rate 400 ppm), in data set [8] (spray rate 400 ppm) and in data set [9] (spray rate 400 ppm) was 0% throughout.
As to `CC(C)c1ccc(CCNc2ncnc3c(F)cccc23)cc1` [Example 96, 8-fluoro-N-[2-[4-(i-propyl)phenyl]ethyl]-4-quinazolinamine], the “POWD MDEW” value in data set [1] is reported as “+++ (+++ = 90-100% control at 100 ppm)”. For the same compound, the “RICE BLAST” value in [2] is “+++ (+++ = 90-100% control at 100 ppm)”. The “LEAF RUST” value in data set [3] was “+++ (+++ = 90-100% control at 100 ppm)”. The “GRAY MOLD” value in [4] was “- (- = 0-19% control at 400 ppm)”. Besides, the “DOWN MDEW” value in data set [5] is given as “+++ (+++ = 90-100% control at 100 ppm)”. Also, the mortality at 12 ppm in data set [6] (CRW rate 12.00 ppm) was 0%. The mortality at 24 ppm in data set [6] (CRW rate 24.00 ppm) is 0%. The mortality at 200 ppm in data set [7] (spray rate 200 ppm) turned out to be 100%; in data set [8] (spray rate 200 ppm), 50%; in data set [9] (spray rate 200 ppm) it was 50%. For the same compound, the mortality at 400 ppm in data set [7] (spray rate 400 ppm) was 100%; in data set [8] (spray rate 400 ppm), 0%; in data set [9] (spray rate 400 ppm), 0%.
Regarding `Cc1cccc(CCOc2ncnc3ccccc23)c1` [Example 97, 4-[2-(3-methylphenyl)ethoxy]quinazoline], the “POWD MDEW” value in data set [1] is given as “+++ (+++ = 90-100% control at 100 ppm)”. Further, in data set [2], the “RICE BLAST” value was “++ (++ = 90-100% control at 400 ppm)”. Also, the “LEAF RUST” value in data set [3] is listed as “+++ (+++ = 90-100% control at 100 ppm)”. The “GRAY MOLD” value in [4] is listed as “- (- = 0-19% control at 400 ppm)”. The “DOWN MDEW” value in [5] was “++ (++ = 90-100% control at 400 ppm)”. Moreover, the mortality at 24 ppm in data set [6] (CRW rate 24.00 ppm) is 0%. Further, the mortality at 400 ppm in data set [7] (spray rate 400 ppm), in [8] (spray rate 400 ppm) and in data set [9] (spray rate 400 ppm) was 0% each time.
Consider `Cc1ccc(CCOc2ncnc3c(F)cccc23)cc1` [Example 99], for which the “POWD MDEW” value in data set [1] is “+++ (+++ = 90-100% control at 100 ppm)”. The “RICE BLAST” value in data set [2] is recorded as “- (- = 0-19% control at 400 ppm)”. The “LEAF RUST” value in data set [3] is “+++ (+++ = 90-100% control at 100 ppm)”. For the same compound, the “GRAY MOLD” value in [4] was “- (- = 0-19% control at 400 ppm)”. Also, in [5], the “DOWN MDEW” value is listed as “+++ (+++ = 90-100% control at 100 ppm)”. For the same compound, in data set [6] (CRW rate 12.00 ppm), the mortality at 12 ppm was 0%. The mortality at 24 ppm in data set [6] (CRW rate 24.00 ppm) amounted to 0%. Moreover, the mortality at 200 ppm in data set [7] (spray rate 200 ppm) came out at 0%; in data set [8] (spray rate 200 ppm) it was 100%; in data set [9] (spray rate 200 ppm), 100%. In addition, the mortality at 400 ppm in [7] (spray rate 400 ppm), in data set [8] (spray rate 400 ppm) and in [9] (spray rate 400 ppm) was 0% each time.
Regarding `CC(C)(C)c1ccc(CCNc2ncnc3c(F)cccc23)cc1` [Example 100, 8-fluoro-N-[2-[4-(t-butyl)phenyl]ethyl]-4-quinazolinamine], the “POWD MDEW” value in [1] is given as “+++ (+++ = 90-100% control at 100 ppm)”. For the same compound, the “RICE BLAST” value in [2] is listed as “+++ (+++ = 90-100% control at 100 ppm)”. Besides, the “LEAF RUST” value in data set [3] is recorded as “+++ (+++ = 90-100% control at 100 ppm)”. In addition, in [4], the “GRAY MOLD” value is given as “- (- = 0-19% control at 400 ppm)”. Moreover, in data set [5], the “DOWN MDEW” value is reported as “+++ (+++ = 90-100% control at 100 ppm)”. Further, the mortality at 12 ppm in data set [6] (CRW rate 12.00 ppm) was found to be 0%. Also, in data set [6] (CRW rate 24.00 ppm), the mortality at 24 ppm came to 100%. For the same compound, the mortality at 200 ppm in [7] (spray rate 200 ppm), in [8] (spray rate 200 ppm) and in data set [9] (spray rate 200 ppm) was 80% throughout. Also, the mortality at 400 ppm in data set [7] (spray rate 400 ppm), in data set [8] (spray rate 400 ppm) and in [9] (spray rate 400 ppm) was 0% in each case.
